Measured values published in article PMC11396129, “Oxindole–benzothiazole hybrids as CDK2 inhibitors and anticancer agents: design, synthesis and biological evaluation” (BMC Chemistry, 2024).

Columns and labels:
KM12 = assay: NCI 60 panel growth inhibition (SRB), colon cancer; assay type: cell-based, human; settings: KM12, 10 μM
Protocol: (§1) Screening of cytotoxic activity against a panel of sixty human tumor cell lines The selected compounds by NCI were evaluated for their anticancer activity in a two- stage process. […] Then, the output from the single dose screen is reported as a mean graph. […] Assay protocol. […] For a typical screening experiment, cells are inoculated into 96 well microtiter plates in 100 µL at plating densities ranging from 5000 to 40,000 cells/well depending on the doubling time of individual cell lines. […] After 24 h, two plates of each cell line are fixed in situ with TCA, to represent a measurement of the cell population for each cell line at the time of drug addition (Tz). The experimental drugs are solubilized in dimethyl sulfoxide at 400-fold the desired final maximum test concentration and stored frozen prior to use. At the time of drug addition, an aliquot of frozen concentrate is thawed and diluted to twice the desired final maximum test concentration with complete medium containing 50 µg/mL gentamicin. Additional four, 10-fold or ½ log serial dilutions are made to provide a total of five drug concentrations plus control. […] For adherent cells, the assay is terminated by the addition of cold TCA. […] The supernatant is discarded, and the plates are washed five times with tap water and air dried. […] Using the seven absorbance measurements [time zero, (Tz), control growth, (C), and test growth in the presence of drug at the five concentration levels (Ti)], the percentage growth is calculated at each of the drug concentrations levels. Percentage growth inhibition is calculated as: [(Ti Tz)/(C–Tz)] x 100 for concentrations for which Ti>/=Tz and [(Ti-Tz)/Tz] x 100 for concentrations for which Ti < Tz. Three dose response parameters are calculated for each experimental agent. […] The drug concentration resulting in total growth inhibition (TGI) is calculated from Ti = Tz. […] Values are calculated for each of these three parameters if the level of activity is reached; however, if the effect is not reached or is exceeded, the value for that parameter is expressed as greater or less than the maximum or minimum concentration tested.

HCC-2998 = assay: NCI 60 panel growth inhibition (SRB), colon cancer; assay type: cell-based, human; settings: HCC-2998, 10 μM
Protocol: as §1

SW-620 = assay: NCI 60 panel growth inhibition (SRB), colon cancer; assay type: cell-based, human; settings: SW-620, 10 μM
Protocol: as §1

COLO 205 = assay: NCI 60 panel growth inhibition (SRB), colon cancer; assay type: cell-based, human; settings: COLO 205, 10 μM
Protocol: as §1

HCT-15 = assay: NCI 60 panel growth inhibition (SRB), colon cancer; assay type: cell-based, human; settings: HCT-15, 10 μM
Protocol: as §1

HCT-116 = assay: NCI 60 panel growth inhibition (SRB), colon cancer; assay type: cell-based, human; settings: HCT-116, 10 μM
Protocol: as §1

DU-145 = assay: NCI 60 panel growth inhibition (SRB), prostate cancer; assay type: cell-based, human; settings: DU-145, 10 μM
Protocol: as §1

PC-3 = assay: as above; assay type: cell-based, human; settings: PC-3, 10 μM
Protocol: as §1

CDK2 = target: T1, CDK2 (Homo sapiens, UniProt P24941); assay: CDK2 kinase assay (BPS kit, Kinase-Glo Max); assay type: biochemical; settings: mean of two independent experiments ± SD
T1 construct: purchased BPS Biosciences 79599

SNB-75 = assay: NCI 60 panel growth inhibition (SRB), CNS cancer; assay type: cell-based, human; settings: SNB-75, 10 μM
Protocol: as §1

SF-295 = assay: NCI 60 panel growth inhibition (SRB), CNS cancer; assay type: cell-based, human; settings: SF-295, 10 μM
Protocol: as §1

SNB-19 = assay: NCI 60 panel growth inhibition (SRB), CNS cancer; assay type: cell-based, human; settings: SNB-19, 10 μM
Protocol: as §1

U251 = assay: NCI 60 panel growth inhibition (SRB), CNS cancer; assay type: cell-based, human; settings: U251, 10 μM
Protocol: as §1

SF-539 = assay: NCI 60 panel growth inhibition (SRB), CNS cancer; assay type: cell-based, human; settings: SF-539, 10 μM
Protocol: as §1

SF-268 = assay: NCI 60 panel growth inhibition (SRB), CNS cancer; assay type: cell-based, human; settings: SF-268, 10 μM
Protocol: as §1

M14 = assay: NCI 60 panel growth inhibition (SRB), melanoma; assay type: cell-based, human; settings: M14, 10 μM
Protocol: as §1

SK-MEL-28 = assay: NCI 60 panel growth inhibition (SRB), melanoma; assay type: cell-based, human; settings: SK-MEL-28, 10 μM
Protocol: as §1

SK-MEL-5 = assay: NCI 60 panel growth inhibition (SRB), melanoma; assay type: cell-based, human; settings: SK-MEL-5, 10 μM
Protocol: as §1

MDA-MB-435 = assay: NCI 60 panel growth inhibition (SRB), melanoma; assay type: cell-based, human; settings: MDA-MB-435, 10 μM
Protocol: as §1

UACC-62 = assay: NCI 60 panel growth inhibition (SRB), melanoma; assay type: cell-based, human; settings: UACC-62, 10 μM
Protocol: as §1

LOX IMVI = assay: NCI 60 panel growth inhibition (SRB), melanoma; assay type: cell-based, human; settings: 10 μM
Protocol: as §1

MALME-3M = assay: NCI 60 panel growth inhibition (SRB), melanoma; assay type: cell-based, human; settings: 10 μM
Protocol: as §1

UACC-257 = assay: NCI 60 panel growth inhibition (SRB), melanoma; assay type: cell-based, human; settings: UACC-257, 10 μM
Protocol: as §1

K-562 = assay: NCI 60 panel growth inhibition (SRB), leukemia; assay type: cell-based, human; settings: K-562, 10 μM
How it was run: (§2)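 SRB absorbance read-out; growth computed as [(Ti−Tz)/(C−Tz)]×100 when Ti≥Tz, else [(Ti−Tz)/Tz]×100. TGI taken where Ti = Tz. Five drug concentrations per line, seeding 5000–40,000 cells/well, time-zero fixation at 24 h.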

SR = assay: NCI 60 panel growth inhibition (SRB), leukemia; assay type: cell-based, human; settings: 10 μM
How it was run: as §2

MOLT-4 = assay: NCI 60 panel growth inhibition (SRB), leukemia; assay type: cell-based, human; settings: MOLT-4, 10 μM
How it was run: as §2

HT29 = assay: NCI 60 panel growth inhibition (SRB), colon cancer; assay type: cell-based, human; settings: HT29, 10 μM
Protocol: as §1

SK-MEL-2 = assay: NCI 60 panel growth inhibition (SRB), melanoma; assay type: cell-based, human; settings: SK-MEL-2, 10 μM
Protocol: as §1

SMILES	GI% (KM12)	GI% (HCC-2998)	GI% (SW-620)	GI% (COLO 205)	GI% (HCT-15)	GI% (HCT-116)	GI% (DU-145)	GI% (SNB-75)	GI% (SF-295)	GI% (SNB-19)	GI% (U251)	GI% (SF-539)	GI% (SF-268)	GI% (M14)	GI% (SK-MEL-28)	GI% (SK-MEL-5)	GI% (MDA-MB-435)	GI% (UACC-62)	GI% (LOX IMVI)	GI% (MALME-3M)	also measured
Cc1ccc2c(c1)C(=NNC(=O)COc1ccccc1-c1nc3ccccc3s1)C(=O)N2 [Compound 9b, 2-(2-(Benzo[d]thiazol-2-yl)phenoxy)-N′-(5-methyl-2-oxoindolin-3-ylidene)acetohydrazide]	18.69%	19.53%	– (GI% < 5%)	– (GI% < 5%)	31.29%	53.56%	22.75%	54.28%	44.34%	74.25%	56.51%	76.88%	43.82%	11.64%	– (GI% < 5%)	62.70%	17.86%	33.71%	84.01%	57.82%	GI% (PC-3): 22.82%; IC50 (CDK2): 0.7 ± 0.013 µM; GI% (UACC-257): – (GI% < 5%); GI% (K-562): 20.57%; GI% (SR): 18.71%; GI% (MOLT-4): 29.12%
COc1ccc(-c2nc3ccccc3s2)cc1OCC(=O)NN=C1C(=O)Nc2ccc(C)cc21 [Compound 9n, 2-(5-(Benzo[d]thiazol-2-yl)-2-methoxyphenoxy)-N′-(5-methyl-2-oxoindolin-3-ylidene)acetohydrazide]	– (GI% < 5%)	– (GI% < 5%)	6.33%	– (GI% < 5%)	9.62%	– (GI% < 5%)	7.08%	– (GI% < 5%)	– (GI% < 5%)	– (GI% < 5%)	– (GI% < 5%)	11.49%	5.27%	– (GI% < 5%)	6.91%	7.31%	– (GI% < 5%)	13.88%	– (GI% < 5%)	18.46%	GI% (HT29): – (GI% < 5%); GI% (PC-3): – (GI% < 5%); GI% (SK-MEL-2): – (GI% < 5%); GI% (UACC-257): – (GI% < 5%); GI% (K-562): 6.70%; GI% (MOLT-4): 13.07%
COc1cccc(-c2nc3ccccc3s2)c1OCC(=O)NN=C1C(=O)Nc2ccc(Br)cc21 [Compound 9l, 2-(2-(Benzo[d]thiazol-2-yl)-6-methoxyphenoxy)-N′-(5-bromo-2-oxoindolin-3-ylidene)acetohydrazide]	12.55%	– (GI% < 5%)	– (GI% < 5%)	– (GI% < 5%)	21.00%	7.62%	– (GI% < 5%)	10.42%	33.14%	– (GI% < 5%)	– (GI% < 5%)	9.75%	8.60%	– (GI% < 5%)	– (GI% < 5%)	19.70%	5.27%	35.62%	19.74%	6.30%	GI% (HT29): 9.08%; GI% (SK-MEL-2): 9.60%; GI% (UACC-257): – (GI% < 5%); GI% (K-562): 18.70%; GI% (SR): 16.68%; GI% (MOLT-4): 36.40%
O=C(COc1ccccc1-c1nc2ccccc2s1)NN=C1C(=O)Nc2ccc(Br)cc21 [Compound 9f, 2-(2-(Benzo[d]thiazol-2-yl)phenoxy)-N′-(5-bromo-2-oxoindolin-3-ylidene)acetohydrazide]	15.34%	11.62%	– (GI% < 5%)	– (GI% < 5%)	17.46%	53.40%	14.27%	84.86%	32.61%	81.08%	86.92%	110.59%	45.84%	8.00%	– (GI% < 5%)	43.95%	14.63%	25.55%	59.05%	55.98%	GI% (HT29): – (GI% < 5%); GI% (PC-3): 27.83%; IC50 (CDK2): 0.2 ± 0.035 µM; GI% (UACC-257): 13.04%; GI% (K-562): 22.52%; GI% (SR): 43.03%; GI% (MOLT-4): 36.74%
O=C(COc1ccccc1-c1nc2ccccc2s1)NN=C1C(=O)Nc2ccc(Cl)cc21 [Compound 9e, 2-(2-(Benzo[d]thiazol-2-yl)phenoxy)-N′-(5-chloro-2-oxoindolin-3-ylidene)acetohydrazide]	– (GI% < 5%)	– (GI% < 5%)	– (GI% < 5%)	– (GI% < 5%)	– (GI% < 5%)	– (GI% < 5%)	– (GI% < 5%)	– (GI% < 5%)	– (GI% < 5%)	– (GI% < 5%)	– (GI% < 5%)	– (GI% < 5%)	– (GI% < 5%)	– (GI% < 5%)	– (GI% < 5%)	5.89%	– (GI% < 5%)	10.86%	8.86%	– (GI% < 5%)	GI% (HT29): – (GI% < 5%); GI% (SK-MEL-2): – (GI% < 5%); GI% (UACC-257): – (GI% < 5%); GI% (K-562): – (GI% < 5%); GI% (SR): 6.46%; GI% (MOLT-4): – (GI% < 5%)
